# Measured values as given in patent US20260262643A1, “HERBICIDAL BENZOXAZINES” (FMC CORPORATION, priority 2022, published 2026).
# Experiments:
# blackgrass [1] = assay: Test A preemergence; assay type: in vivo, Alopecurus myosuroides
# In short: (§1)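 Greenhouse pot test, 10 days. Compound (non-phytotoxic solvent, surfactant) sprayed on soil at seeding or on seedlings at one- to two-leaf stage. Visual injury rated 0–100 against untreated plants.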
# corn [2] = assay: Test A preemergence; assay type: in vivo, Zea mays
# In short: as §1
# foxtail, giant [3] = assay: Test A preemergence; assay type: in vivo, Setaria faberi
# In short: as §1
# goosegrass [4] = assay: Test A preemergence; assay type: in vivo, Eleusine indica
# In short: as §1
# kochia [5] = assay: Test A preemergence; assay type: in vivo, Bassia scoparia
# In short: as §1
# oat, wild [6] = assay: Test A preemergence; assay type: in vivo, Avena fatua
# In short: as §1
# pigweed, palmer [7] = assay: Test A preemergence; assay type: in vivo, Amaranthus palmeri
# In short: as §1
# ragweed [8] = assay: Test A preemergence; assay type: in vivo, Ambrosia artemisiifolia
# In short: as §1
# ryegrass, Italian [9] = assay: Test A preemergence; assay type: in vivo, Lolium multiflorum
# In short: as §1
# soybean [10] = assay: Test A preemergence; assay type: in vivo, Glycine max
# In short: as §1
# wheat [11] = assay: Test A preemergence; assay type: in vivo, Triticum aestivum
# In short: as §1
# blackgrass [12] = assay: Test A postemergence; assay type: in vivo, Alopecurus myosuroides; settings: postemergence, 10 days; for Blackgrass plant response rating: 125 g ai/ha, 0 to 100 scale, 0 no effect, 100 complete control; for Plant response rating, Blackgrass: 500 g ai/ha, visual injury, 0 to 100 scale (0 no effect, 100 complete control)
# In short: as §1
# corn [13] = assay: Test A postemergence; assay type: in vivo, Zea mays; settings: postemergence, 10 days; for Corn plant response rating: 125 g ai/ha, 0 to 100 scale, 0 no effect, 100 complete control; for Plant response rating, Corn: 500 g ai/ha, visual injury, 0 to 100 scale (0 no effect, 100 complete control)
# In short: as §1
# foxtail, giant [14] = assay: Test A postemergence; assay type: in vivo, Setaria faberi; settings: postemergence, 10 days; for Foxtail, Giant plant response rating: 125 g ai/ha, 0 to 100 scale, 0 no effect, 100 complete control; for Plant response rating, Foxtail, Giant: 500 g ai/ha, visual injury, 0 to 100 scale (0 no effect, 100 complete control)
# In short: as §1
# goosegrass [15] = assay: Test A postemergence; assay type: in vivo, Eleusine indica; settings: postemergence, 10 days; for Goosegrass plant response rating: 125 g ai/ha, 0 to 100 scale, 0 no effect, 100 complete control; for Plant response rating, Goosegrass: 500 g ai/ha, visual injury, 0 to 100 scale (0 no effect, 100 complete control)
# In short: as §1
# kochia [16] = assay: Test A postemergence; assay type: in vivo, Bassia scoparia; settings: postemergence, 10 days; for Kochia plant response rating: 125 g ai/ha, 0 to 100 scale, 0 no effect, 100 complete control; for Plant response rating, Kochia: 500 g ai/ha, visual injury, 0 to 100 scale (0 no effect, 100 complete control)
# In short: as §1
# oat, wild [17] = assay: Test A postemergence; assay type: in vivo, Avena fatua; settings: postemergence, 10 days; for Oat, Wild plant response rating: 125 g ai/ha, 0 to 100 scale, 0 no effect, 100 complete control; for Plant response rating, Oat, Wild: 500 g ai/ha, visual injury, 0 to 100 scale (0 no effect, 100 complete control)
# In short: as §1
# pigweed, palmer [18] = assay: Test A postemergence; assay type: in vivo, Amaranthus palmeri; settings: postemergence, 10 days; for Pigweed, Palmer plant response rating: 125 g ai/ha, 0 to 100 scale, 0 no effect, 100 complete control; for Plant response rating, Pigweed, Palmer: 500 g ai/ha, visual injury, 0 to 100 scale (0 no effect, 100 complete control)
# In short: as §1
# ragweed [19] = assay: Test A postemergence; assay type: in vivo, Ambrosia artemisiifolia; settings: postemergence, 10 days; for Ragweed plant response rating: 125 g ai/ha, 0 to 100 scale, 0 no effect, 100 complete control; for Plant response rating, Ragweed: 500 g ai/ha, visual injury, 0 to 100 scale (0 no effect, 100 complete control)
# In short: as §1
# ryegrass, Italian [20] = assay: Test A postemergence; assay type: in vivo, Lolium multiflorum; settings: postemergence, 10 days; for Ryegrass, Italian plant response rating: 125 g ai/ha, 0 to 100 scale, 0 no effect, 100 complete control; for Plant response rating, Ryegrass, Italian: 500 g ai/ha, visual injury, 0 to 100 scale (0 no effect, 100 complete control)
# In short: as §1
# soybean [21] = assay: Test A postemergence; assay type: in vivo, Glycine max; settings: postemergence, 10 days; for Soybean plant response rating: 125 g ai/ha, 0 to 100 scale, 0 no effect, 100 complete control; for Plant response rating, Soybean: 500 g ai/ha, visual injury, 0 to 100 scale (0 no effect, 100 complete control)
# In short: as §1
# wheat [22] = assay: Test A postemergence; assay type: in vivo, Triticum aestivum; settings: postemergence, 10 days; for Wheat plant response rating: 125 g ai/ha, 0 to 100 scale, 0 no effect, 100 complete control; for Plant response rating, Wheat: 500 g ai/ha, visual injury, 0 to 100 scale (0 no effect, 100 complete control)
# In short: as §1
# galium = assay: Test A postemergence; assay type: in vivo, Galium aparine; settings: postemergence, 10 days; for Galium plant response rating: 125 g ai/ha, 0 to 100 scale, 0 no effect, 100 complete control; for Plant response rating, Galium: 500 g ai/ha, visual injury, 0 to 100 scale (0 no effect, 100 complete control)
# In short: as §1
# horseweed = assay: Test A postemergence; assay type: in vivo, Erigeron canadensis; settings: postemergence, 10 days; for Horseweed plant response rating: 125 g ai/ha, 0 to 100 scale, 0 no effect, 100 complete control; for Plant response rating, Horseweed: 500 g ai/ha, visual injury, 0 to 100 scale (0 no effect, 100 complete control)
# In short: as §1
# barnyardgrass = assay: Test B flooded paddy test; assay type: in vivo, Echinochloa crus-galli; settings: 250 g ai/ha, Flood, 13 days, 0 to 100 scale (0 no effect, 100 complete control)
# In short: (§2)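 Plants at the 2-leaf stage were flooded to 3 cm above the soil, and test compounds were applied directly into the paddy water, with that depth held throughout. After 13 days in a greenhouse, injury was rated visually against untreated controls on a 0–100 scale (100 = complete control).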
# ducksalad = assay: Test B flooded paddy test; assay type: in vivo, Heteranthera limosa; settings: 250 g ai/ha, Flood, 13 days, 0 to 100 scale (0 no effect, 100 complete control)
# In short: as §2
# rice = assay: Test B flooded paddy test; assay type: in vivo, Oryza sativa; settings: 250 g ai/ha, Flood, 13 days, 0 to 100 scale (0 no effect, 100 complete control)
# In short: as §2
# sedge, umbrella = assay: Test B flooded paddy test; assay type: in vivo, Cyperus difformis; settings: 250 g ai/ha, Flood, 13 days, 0 to 100 scale (0 no effect, 100 complete control)
# In short: as §2
# [23] = 125 g ai/ha, visual injury after 10 days, 0 to 100 scale, 0 is no effect, 100 is complete control
# [24] = 500 g ai/ha, 0 to 100 scale (0 no effect, 100 complete control), 10 days
smiles,measurement,setting,value
CCc1ncn(-c2cccc(C(=O)N3C[C@H](C)Oc4c(Cl)cccc43)c2)n1 [Compound 91],"Plant response rating, Blackgrass",blackgrass [1]; [23],80
same,"Plant response rating, Blackgrass",blackgrass [1]; [24],90
same,"Plant response rating, Corn",corn [2]; [23],30
same,"Plant response rating, Corn",corn [2]; [24],60
same,"Plant response rating, Foxtail, Giant","foxtail, giant [3]; [23]",90
same,"Plant response rating, Foxtail, Giant","foxtail, giant [3]; [24]",100
same,"Plant response rating, Goosegrass",goosegrass [4]; [23],100
same,"Plant response rating, Goosegrass",goosegrass [4]; [24],100
same,"Plant response rating, Kochia",kochia [5]; [23],90
same,"Plant response rating, Kochia",kochia [5]; [24],100
same,"Plant response rating, Oat, Wild","oat, wild [6]; [23]",10
same,"Plant response rating, Oat, Wild","oat, wild [6]; [24]",90
same,"Plant response rating, Pigweed, Palmer","pigweed, palmer [7]; [23]",90
same,"Plant response rating, Pigweed, Palmer","pigweed, palmer [7]; [24]",100
same,"Plant response rating, Ragweed",ragweed [8]; [23],0
same,"Plant response rating, Ragweed",ragweed [8]; [24],30
same,"Plant response rating, Ryegrass, Italian","ryegrass, Italian [9]; [23]",90
same,"Plant response rating, Ryegrass, Italian","ryegrass, Italian [9]; [24]",100
same,"Plant response rating, Soybean",soybean [10]; [23],20
same,"Plant response rating, Soybean",soybean [10]; [24],70
same,"Plant response rating, Wheat",wheat [11]; [23],0
same,"Plant response rating, Wheat",wheat [11]; [24],20
same,Blackgrass plant response rating,blackgrass [12],90
same,"Plant response rating, Blackgrass",blackgrass [12],100
same,Corn plant response rating,corn [13],60
same,"Plant response rating, Corn",corn [13],80
same,"Foxtail, Giant plant response rating","foxtail, giant [14]",80
same,"Plant response rating, Foxtail, Giant","foxtail, giant [14]",90
same,Goosegrass plant response rating,goosegrass [15],80
same,"Plant response rating, Goosegrass",goosegrass [15],90
same,Kochia plant response rating,kochia [16],80
same,"Plant response rating, Kochia",kochia [16],100
same,"Oat, Wild plant response rating","oat, wild [17]",50
same,"Plant response rating, Oat, Wild","oat, wild [17]",90
same,"Pigweed, Palmer plant response rating","pigweed, palmer [18]",70
same,"Plant response rating, Pigweed, Palmer","pigweed, palmer [18]",90
same,Ragweed plant response rating,ragweed [19],30
same,"Plant response rating, Ragweed",ragweed [19],70
same,"Ryegrass, Italian plant response rating","ryegrass, Italian [20]",80
same,"Plant response rating, Ryegrass, Italian","ryegrass, Italian [20]",100
same,Soybean plant response rating,soybean [21],100
same,"Plant response rating, Soybean",soybean [21],100
same,Wheat plant response rating,wheat [22],30
same,"Plant response rating, Wheat",wheat [22],80
same,Galium plant response rating,galium,100
same,"Plant response rating, Galium",galium,100
same,Horseweed plant response rating,horseweed,0
same,"Plant response rating, Horseweed",horseweed,20
same,"Plant response rating, Barnyardgrass",barnyardgrass,25
same,"Plant response rating, Ducksalad",ducksalad,90
same,"Plant response rating, Rice",rice,0
same,"Plant response rating, Sedge, Umbrella","sedge, umbrella",35
C[C@H]1CN(C(=O)c2cccc(-n3cnc(C(C)(C)C)n3)c2)c2cccc(Cl)c2O1 [Compound 92],"Plant response rating, Blackgrass",blackgrass [1]; [23],80
same,"Plant response rating, Blackgrass",blackgrass [1]; [24],90
same,"Plant response rating, Corn",corn [2]; [23],30
same,"Plant response rating, Corn",corn [2]; [24],30
same,"Plant response rating, Foxtail, Giant","foxtail, giant [3]; [23]",70
same,"Plant response rating, Foxtail, Giant","foxtail, giant [3]; [24]",100
same,"Plant response rating, Goosegrass",goosegrass [4]; [23],100
same,"Plant response rating, Goosegrass",goosegrass [4]; [24],100
same,"Plant response rating, Kochia",kochia [5]; [23],70
same,"Plant response rating, Kochia",kochia [5]; [24],100
same,"Plant response rating, Oat, Wild","oat, wild [6]; [23]",80
same,"Plant response rating, Oat, Wild","oat, wild [6]; [24]",90
same,"Plant response rating, Pigweed, Palmer","pigweed, palmer [7]; [23]",100
same,"Plant response rating, Pigweed, Palmer","pigweed, palmer [7]; [24]",100
same,"Plant response rating, Ragweed",ragweed [8]; [23],0
same,"Plant response rating, Ragweed",ragweed [8]; [24],30
same,"Plant response rating, Ryegrass, Italian","ryegrass, Italian [9]; [23]",100
same,"Plant response rating, Ryegrass, Italian","ryegrass, Italian [9]; [24]",100
same,"Plant response rating, Soybean",soybean [10]; [23],50
same,"Plant response rating, Soybean",soybean [10]; [24],90
same,"Plant response rating, Wheat",wheat [11]; [23],30
same,"Plant response rating, Wheat",wheat [11]; [24],80
same,Blackgrass plant response rating,blackgrass [12],70
same,"Plant response rating, Blackgrass",blackgrass [12],90
same,Corn plant response rating,corn [13],30
same,"Plant response rating, Corn",corn [13],70
same,"Foxtail, Giant plant response rating","foxtail, giant [14]",30
same,"Plant response rating, Foxtail, Giant","foxtail, giant [14]",80
same,Goosegrass plant response rating,goosegrass [15],30
same,"Plant response rating, Goosegrass",goosegrass [15],50
same,Kochia plant response rating,kochia [16],80
same,"Plant response rating, Kochia",kochia [16],90
same,"Oat, Wild plant response rating","oat, wild [17]",50
same,"Plant response rating, Oat, Wild","oat, wild [17]",70
same,"Pigweed, Palmer plant response rating","pigweed, palmer [18]",90
same,"Plant response rating, Pigweed, Palmer","pigweed, palmer [18]",90
same,Ragweed plant response rating,ragweed [19],60
same,"Plant response rating, Ragweed",ragweed [19],70
same,"Ryegrass, Italian plant response rating","ryegrass, Italian [20]",50
same,"Plant response rating, Ryegrass, Italian","ryegrass, Italian [20]",100
same,Soybean plant response rating,soybean [21],90
same,"Plant response rating, Soybean",soybean [21],100
same,Wheat plant response rating,wheat [22],40
same,"Plant response rating, Wheat",wheat [22],50
same,Galium plant response rating,galium,100
same,"Plant response rating, Galium",galium,100
same,Horseweed plant response rating,horseweed,0
same,"Plant response rating, Horseweed",horseweed,50
same,"Plant response rating, Barnyardgrass",barnyardgrass,25
same,"Plant response rating, Ducksalad",ducksalad,90
same,"Plant response rating, Rice",rice,0
same,"Plant response rating, Sedge, Umbrella","sedge, umbrella",0
